In patent publication US12472196B2, “Use of DNMT inhibitor” (priority 2019, dated 2025):
Where two headings read alike, the source gives them in different places.

Columns and labels:
cytidine deaminase = cytidine deaminase (Homo sapiens, UniProt P32320); experiment: Stability against cytidine deaminase (HPLC)
Description: About 1 mg of a silyl etherified derivative of 5-aza-2′-deoxycytidine in carbohydrate moiety (see formula (I)) was dissolved in 1 mL of acetonitrile. 10 μL of the solution was added to 1 mL of PBS. 10 μl of a PBS solution of cytidine deaminase was added to the obtained solution and stirred at 37° C. for about 1 hour. 1 mL of acetonitrile was added to the reaction solution and centrifuged. The supernatant was analyzed with HPLC.
Cytidine deaminase: CDA (1-146aa), Human, His-tagged, Recombinant cytidine deaminase (ATGen) • HPLC conditions: • Column: CAPCELL PAK ADME (4.6 mm×150 mm, particle size: 3 μm) • Elution: eluate A=Purified water containing 10 mM ammonium formate • Eluate B=Acetonitrile • Gradient mode: A:B=99:1→5:95/30 minutes • Flow rate: 1.0 mL/min • Oven temperature: 40° C. • Detection: UV240 nm

MYL = experiment: cells; conditions: 72 h, read-out: IC50 MYL
Description: (§1) The CML cell line (BV173, MYL, Ba/F3 BCR-ABL^WT) and the TKI-resistant CML cell line (MYL-R, Ba/F3 BCR-ABL^T315I) in the Table below were seeded in 96-well plates at 3,000-7,000 cells/100 μL/well in a culture solution (10% FBS and RPMI-1640) and cultured under 5% CO2 gas flow at 37° C. for about 3 hours. Then, 100 μL of each compound diluted with the culture solution to 50-0.05 μM MYL, Ba/F3 BCR-ABL^WT, MYL-R, Ba/F3 BCR-ABL^T315I and 500 nM-0.1 nM BV173 was added to the above 96-well plates and cultured for 24 hours, followed by centrifugation (4° C., 1500 rpm, 5 minutes). The supernatant of the culture solution was discarded. 100 μL each of the compounds diluted with the culture solution was added again and cultured further for 24 hours (48 hours totally). The same procedure was repeated. After further culturing for 24 hours (72 hours totally) and reaction using CCK-8 reagent (DOJINDO, CK04) according to its attached instruction, the absorption at 450 nm and 620 nm (blank) of each well was determined with a plate reader (Varioskan Flash, Thermo-Fisher Scientific Co. Ltd.). The values of the wells without sample treatment were taken as 100%, and those of the wells treated with the samples were expressed as relative values. The values of IC50 (μm) were calculated (see Table 3-1). In addition, IC50 ratio of MYL-R cell line to MYL cell line and that of Ba/F3 BCR-ABL^T315I cell line to Ba/F3 BCR-ABL^WT cell line were calculated (see Table 3-2).

BV173 = experiment: cells
Description: as §1

Ba/F3 BCR-ABL^WT = experiment: cells; conditions: Mus musculus, BaF3, 72 h, read-out: IC50 Ba/F3 BCR-ABL^WT
Description: as §1

MYL-R = experiment: cells
Description: as §1
(§2) MYL-R cell line is an MYL cell line in which Lyn is overexpressed, and Ba/F3 BCR-ABL^T315I cell line is the one in which ABLT315I mutation is introduced into Ba/F3 BCR-ABL^WT cell line. They both have acquired resistance to TKI.

Ba/F3 BCR-ABL^T315I = experiment: cells
Description: as §1, §2

[1] = Non-enzymatic hydrolysis in PBS solution at 37° C. (HPLC); type: physicochemical
Description: A silyl etherified derivative of 5-aza-2′-deoxycytidine in carbohydrate moiety (see formula (I)), for example, 5′-O-(triethylsilyl)-5-aza-2′-deoxycytidine (Compound F) (about 1 mg) was dissolved in 1 mL of acetonitrile. 5 μL of the solution was added to 100 μL of a PBS solution (10 mM), and stirred at 37° C. The reactant was analyzed over the time with HPLC.
HPLC conditions were same as those in test example 1.

[2] = test system: CpG island of LINE-1 in BV173 cell line; experiment: DNA demethylation effect: CpG methylation ratio of LINE-1 by pyrosequencing; type: cell-based; conditions: BV173, 72 hours
Description: The methylation ratio of cytosine moiety of CpG island of LINE-1 (long interspersed nucleotide factor −1) was determined by using a method of pyrosequencing.
Solutions of silyl etherified derivatives of 5-aza-2′-deoxycytidine in carbohydrate moiety (for example, Compound F: 5′-O-(triethylsilyl)-5-aza-2′-deoxycytidine) at concentrations of 0.1 nM, 1.0 nM, 5.0 nM, 10.0 nM, and 50.0 nM were added, respectively to a solution containing BV173 cell line (about 50,000 cells/mL), and cultured in a RPMI-1640 medium (containing 10% FBS and Penn-strep) for 72 hours. Then, DNA was extracted from the cells and treated with hydrogensulfite. CpG methylation ratio of LINE-1 was determined (see Table 4).

Sequence of cytidine deaminase (P32320 whole entry): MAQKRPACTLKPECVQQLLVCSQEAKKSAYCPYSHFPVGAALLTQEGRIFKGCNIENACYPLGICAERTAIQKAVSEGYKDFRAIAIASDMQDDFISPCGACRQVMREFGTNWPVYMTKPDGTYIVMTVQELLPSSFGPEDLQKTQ

Nc1ncn([C@H]2C[C@H](O)[C@@H](CO)O2)c(=O)n1 [5-Aza-2′-deoxycytidine]
Change in HPLC pattern (cytidine deaminase): The peak for starting material disappeared
stability to cytidine deaminase (in words) (cytidine deaminase): disappeared completely
time within which decomposed in the presence of cytidine deaminase (cytidine deaminase; under the condition used): ≤ 30 min

CC[Si](CC)(CC)OC[C@H]1O[C@@H](n2cnc(N)nc2=O)C[C@@H]1O [Compound F, 5′-O-(Triethylsilyl)-5-aza-2′-deoxycytidine]
IC50 (MYL): 280 nM
anti-CML activity (in words) (BV173; CML cell lines of Table 3-1 (BV173, MYL, Ba/F3 BCR-ABL^WT)): very high anti-CML activity
IC50 (BV173; Homo sapiens, BV-173, 72 h, read-out: IC50 BV173): 5 nM
IC50 (Ba/F3 BCR-ABL^WT): 580 nM
IC50 (MYL-R; 72 h, read-out: IC50 MYL-R): 790 nM
anti-CML activity against MYL-R strain compared with reference nucleosides (in words) (MYL-R; MYL-R): considerably higher than that in the case of 5-aza cytidine
anti-TKI-resistant CML activity (in words) (MYL-R; TKI-resistant CML cell lines of Table 3-1 (MYL-R, Ba/F3 BCR-ABL^T315I)): anti-TKI-resistant CML activity
IC50 ratio MYL-R/MYL (MYL-R; ratio of IC50 in MYL-R to MYL): 2.8
IC50 (Ba/F3 BCR-ABL^T315I; Mus musculus, BaF3, 72 h, read-out: IC50 Ba/F3 BCR-ABL^T315I): 780 nM
IC50 ratio Ba/F3 BCR-ABL^T315I/BCR-ABL^WT (Ba/F3 BCR-ABL^T315I; ratio of IC50 in Ba/F3 BCR-ABL^T315I to Ba/F3 BCR-ABL^WT): 1.4
5-Aza-2′-deoxycytidine (%) After 4 hours ([1]; 10 mM PBS, 4 hours, desilyl form produced): 10%
5-Aza-2′-deoxycytidine (%) After 8 hours ([1]; 10 mM PBS, 8 hours, desilyl form produced): 12%
5-Aza-2′-deoxycytidine (%) After 24 hours ([1]; 10 mM PBS, 24 hours, desilyl form produced): 48%
non-enzymatic hydrolysis in PBS solution (in words) ([1]; PBS): the corresponding desilyl form (5-aza-2′-deoxycytizine: R^1 and R^2 are hydrogen atoms in formula (I)) was produced almost without other decomposition products
Change in HPLC pattern (cytidine deaminase; PBS with recombinant human cytidine deaminase, 37° C., about 1 hour): Almost no change in the peak for
Methylation ratio ([2]; 0.1 nM): 89.3%
Methylation ratio ([2]; 1.0 nM): 89.7%
Methylation ratio ([2]; 5.0 nM): 88.0%
Methylation ratio ([2]; 10.0 nM): 82.3%
Methylation ratio ([2]; 50.0 nM): 60.0%
